Starred links: 1 amine or outer side, 2 acyl side, 3 side chain; linkers in the order of their positions; H or OH if unused. Non-standard residues stand in square brackets, D forms with d. Residues, ends and D or L forms follow the SMILES beside them. Groups on a side chain read outwards from the residue. ξ: configuration not given here. *: point of attachment. C20 diacid = O=C(O)CCCCCCCCCCCCCCCCCCC(=O)*; γGlu = O=C(O)[C@H](CCC(=O)[*:2])N[*:1]; αMeL = CC(C)C[C@](C)(N)C(=O)O; ξIva = CCC(C)(N)C(=O)O; AEEA = NCCOCCOCC(=O)O; Aib = CC(C)(N)C(=O)O
Tests used:
[1] = Pharmacokinetics in mice after single intravenous injection; set-up: species or system C57 mice; settings: male, C57, mouse, in vivo, iv
Description: Male C57 mice were used as test animals. The target compound was administered via a single intravenous injection, and the pharmacokinetic characteristics of the compound in C57 mice in vivo (plasma) were determined.
Male C57 mice, weighing approximately 25g, aged 4-6 weeks. After preparing the polypeptide compound solution using 1×PBS dissolving solution, the compound was administered intravenously at a dose of 200 nmol/kg, where each compound was administered to 3 animals. Blood samples of 60 µL were collected at 5 min, 15 min, 0.5 h, 1 h, 2 h, 4 h, 6 h, 24 h, 48 h and 72 h after the infusion was completed and transferred to centrifuge tubes containing EDTA-K2 anticoagulant. Whole blood samples were centrifuged at 4000 g for 5 min at 4°C. Plasma was separated and plasma samples were frozen and stored at -80 °C.
Sample pretreatment method: 30 µL of plasma samples was taken, and 120 µL of 0.1% formic acid in methanol containing 1 ng/mL internal standard verapamil was added. The mixture was vortexed for 5 min, and centrifuged at 10000 rpm for 10 min at low temperature. 70 µL of supernatant was taken, and 70 µL of water was added and mixed well. Analysis was performed by LC-MS instrument.
LC-MS analysis method: (1) chromatographic conditions: mobile phases A and B: 0.1% formic acid in water and 0.1% formic acid in acetonitrile, respectively; gradient elution mode; flow rate: 0.5 mL/min; injection volume: 10 µL; chromatographic column: nanomicro Unisil C18aq (4.6 mm × 150 mm, 5 µm); column temperature: 40°C. (2) Mass spectrometry conditions: For mass spectrometry, an electrospray ionization source (ESI), positive ion analysis mode, and multiple reaction monitoring (MRM) scanning mode were used.
For data processing, SCIEX OS (Version 2.1.6) software was used to quantify blood drug concentration data and PKSolver (Version 2.0) software was used to calculate pharmacokinetic parameters.

human GLP-1R = molecular target: T1, human GLP-1R (Homo sapiens, UniProt P43220); test: cAMP HTRF agonist activity assay in CHO-K1 cells expressing GLP-1R; type: cell-based; settings: read-out: Activity against human GLP-1R (EC50 nM); note: 5% FBS, 0.1% Casein
T1 construct: expressed in transfected cells; host or cells: CHO-K1 clonal cell line
T1 sequence (P43220 24-463): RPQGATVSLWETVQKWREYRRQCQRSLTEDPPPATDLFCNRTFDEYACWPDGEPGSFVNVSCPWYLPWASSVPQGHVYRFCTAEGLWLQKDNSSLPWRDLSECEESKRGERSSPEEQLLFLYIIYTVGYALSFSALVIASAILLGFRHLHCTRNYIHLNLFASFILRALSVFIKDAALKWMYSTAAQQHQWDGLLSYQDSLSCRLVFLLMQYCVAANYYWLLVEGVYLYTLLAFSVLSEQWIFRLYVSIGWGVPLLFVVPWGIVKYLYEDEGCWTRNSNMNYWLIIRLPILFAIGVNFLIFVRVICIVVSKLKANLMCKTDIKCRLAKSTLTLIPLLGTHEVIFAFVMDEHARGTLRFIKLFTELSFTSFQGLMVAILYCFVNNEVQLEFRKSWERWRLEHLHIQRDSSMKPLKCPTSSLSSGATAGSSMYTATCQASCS
Description: Functional activity was determined in CHO-K1 clonal cell lines expressing GIPR, GLP-1R, and GCGR. […] Each recipient cell (5000 cells/well) was added to an SV 96-well plate (Cisbio, 66PL96025) and incubated with the prepared polypeptide at 37°Cfor 30 min. The resulting increase in intracellular cAMP was quantitatively measured using the cAMP-GS dynamic HTRF assay kit (Cisbio, 62AM4PEJ). Briefly, the intracellular cAMP levels were determined by adding cAMP-d2 conjugate in cell lysis buffer, followed by the antibody anti-cAMP-Eu cryptate (also in cell lysis buffer).
Using the maximum response percentage vs. the added polypeptide concentration, the relative EC50 values were derived through nonlinear regression analysis and fitted to a four-parameter logarithmic equation. For specific data, refer to Tables 7-1 to 7-8 below. […]

human GIPR = molecular target: T2, human GIPR (Homo sapiens, UniProt P48546); test: cAMP HTRF agonist activity assay in CHO-K1 cells expressing GIPR; type: cell-based; settings: read-out: Activity against human GIPR (EC50 nM); note: 5% FBS, 0.1% Casein
T2 construct: expressed in transfected cells; host or cells: CHO-K1 clonal cell line
T2 sequence (P48546 22-466): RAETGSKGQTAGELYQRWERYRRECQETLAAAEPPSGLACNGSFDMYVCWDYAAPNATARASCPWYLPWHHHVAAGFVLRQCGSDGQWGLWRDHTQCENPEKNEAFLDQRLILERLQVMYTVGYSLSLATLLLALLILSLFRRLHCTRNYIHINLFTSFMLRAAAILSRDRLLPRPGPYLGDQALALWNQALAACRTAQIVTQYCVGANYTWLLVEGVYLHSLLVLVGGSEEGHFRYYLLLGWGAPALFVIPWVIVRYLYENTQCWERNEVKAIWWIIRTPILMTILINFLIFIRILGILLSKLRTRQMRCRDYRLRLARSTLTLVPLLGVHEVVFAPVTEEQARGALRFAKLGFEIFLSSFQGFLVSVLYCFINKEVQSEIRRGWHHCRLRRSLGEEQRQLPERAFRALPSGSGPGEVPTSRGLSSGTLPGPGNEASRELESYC
Summary of the method: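 cAMP accumulation measured by competitive HTRF after 30 min incubation of polypeptides with 5000 receptor-expressing CHO-K1 cells/well at 37°C. Percent of maximal response versus concentration fitted to a four-parameter logistic to give relative EC50.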

Compound | clearance [1] | half-life [1] | EC50 (human GLP-1R) | EC50 (human GIPR)
CC[C@H](C)[C@H](NC(=O)[C@H](CO)NC(=O)[C@H](CC(C)C)NC(=O)[C@H](CC(=O)O)NC(=O)[C@H](CO)NC(=O)[C@@H](NC(=O)[C@H](Cc1ccccc1)NC(=O)[C@@H](NC(=O)CNC(=O)[C@H](Cc1c[nH]cn1)NC(=O)C(C)(C)NC(=O)[C@@H](N)Cc1c[nH]cn1)[C@@H](C)O)[C@@H](C)O)C(=O)N[C@@H](CC(C)C)C(=O)N[C@@H](CC(C)C)C(=O)N[C@@H](CCC(=O)O)C(=O)N[C@@H](CCCCNC(=O)COCCOCCNC(=O)COCCOCCNC(=O)CC[C@H](NC(=O)CCCCCCCCCCCCCCCCCCC(=O)O)C(=O)O)C(=O)N[C@@H](CCCCN)C(=O)N[C@@H](C)C(=O)N[C@@H](C)C(=O)N[C@@H](CCC(N)=O)C(=O)N[C@@H](CCC(=O)O)C(=O)N[C@@H](Cc1ccccc1)C(=O)N[C@H](C(=O)N[C@@H](CCC(=O)O)C(=O)N[C@@H](Cc1c[nH]c2ccccc12)C(=O)N[C@@H](CC(C)C)C(=O)N[C@@H](CC(C)C)C(=O)N[C@@H](C)C(=O)N[C@H](CCC(=O)O)C(=O)NCC(=O)N1CCC[C@H]1C(=O)N[C@@H](CO)C(=O)N[C@@H](CO)C(=O)NCC(=O)N[C@@H](C)C(=O)N1CCC[C@H]1C(=O)N1CCC[C@H]1C(=O)N1CCC[C@H]1C(=O)N[C@@H](CO)C(N)=O)C(C)C [Compound 0144] | 0.114 mL/min/kg | 9.7 h | 0.035 nM | –
CC[C@H](C)[C@H](NC(=O)[C@H](CO)NC(=O)[C@H](CC(C)C)NC(=O)[C@H](CC(=O)O)NC(=O)[C@H](CO)NC(=O)[C@@H](NC(=O)[C@H](Cc1ccccc1)NC(=O)[C@@H](NC(=O)CNC(=O)[C@H](Cc1c[nH]cn1)NC(=O)C(C)(C)NC(=O)[C@@H](N)Cc1c[nH]cn1)[C@@H](C)O)[C@@H](C)O)C(=O)N[C@@H](CC(C)C)C(=O)N[C@@H](CC(C)C)C(=O)N[C@@H](CCC(=O)O)C(=O)N[C@@H](CCCCNC(=O)COCCOCCNC(=O)COCCOCCNC(=O)CC[C@H](NC(=O)CCCCCCCCCCCCCCCCCCC(=O)O)C(=O)O)C(=O)N[C@@H](CCCCN)C(=O)N[C@@H](C)C(=O)N[C@@H](C)C(=O)NC1(C(=O)N[C@@H](CCC(=O)O)C(=O)N[C@@H](Cc2ccccc2)C(=O)N[C@H](C(=O)N[C@@H](CCC(=O)O)C(=O)N[C@@H](Cc2c[nH]c3ccccc23)C(=O)N[C@@H](CC(C)C)C(=O)N[C@@H](CC(C)C)C(=O)N[C@@H](C)C(=O)N[C@H](CCC(=O)O)C(=O)NCC(=O)N2CCC[C@H]2C(=O)N[C@@H](CO)C(=O)N[C@@H](CO)C(=O)NCC(=O)N[C@@H](C)C(=O)N2CCC[C@H]2C(=O)N2CCC[C@H]2C(=O)N2CCC[C@H]2C(=O)N[C@@H](CO)C(N)=O)C(C)C)CC1 [Compound 0146] | – | – | 0.033 nM | 0.009 nM
CC[C@H](C)[C@H](NC(=O)[C@H](CO)NC(=O)[C@H](CC(C)C)NC(=O)[C@H](CC(=O)O)NC(=O)[C@H](CO)NC(=O)[C@@H](NC(=O)[C@H](Cc1ccccc1)NC(=O)[C@@H](NC(=O)CNC(=O)[C@H](Cc1c[nH]cn1)NC(=O)C(C)(C)NC(=O)[C@@H](N)Cc1c[nH]cn1)[C@@H](C)O)[C@@H](C)O)C(=O)N[C@@H](CC(C)C)C(=O)N[C@@H](CC(C)C)C(=O)N[C@@H](CCC(=O)O)C(=O)N[C@@H](CCCCNC(=O)COCCOCCNC(=O)COCCOCCNC(=O)CC[C@H](NC(=O)CCCCCCCCCCCCCCCCCCC(=O)O)C(=O)O)C(=O)N[C@@H](CCCCN)C(=O)N[C@@H](C)C(=O)N[C@@H](C)C(=O)NC1(C(=O)N[C@@H](CCC(=O)O)C(=O)N[C@@H](Cc2ccccc2)C(=O)N[C@H](C(=O)N[C@@H](CCC(=O)O)C(=O)N[C@@H](Cc2c[nH]c3ccccc23)C(=O)N[C@@H](CC(C)C)C(=O)N[C@@H](CC(C)C)C(=O)N[C@@H](C)C(=O)N[C@H](CCC(=O)O)C(=O)NCC(=O)N2CCC[C@H]2C(=O)N[C@@H](CO)C(=O)N[C@@H](CO)C(=O)NCC(=O)N[C@@H](C)C(=O)N2CCC[C@H]2C(=O)N2CCC[C@H]2C(=O)N2CCC[C@H]2C(=O)N[C@@H](CO)C(N)=O)C(C)C)CCC1 [Compound 0147] | – | – | 0.035 nM | 0.005 nM
CC[C@H](C)[C@H](NC(=O)[C@H](CO)NC(=O)[C@H](Cc1ccc(O)cc1)NC(=O)[C@H](CC(=O)O)NC(=O)[C@H](CO)NC(=O)[C@@H](NC(=O)[C@H](Cc1ccccc1)NC(=O)[C@@H](NC(=O)CNC(=O)[C@H](Cc1c[nH]cn1)NC(=O)C(C)(C)NC(=O)[C@@H](N)Cc1c[nH]cn1)[C@@H](C)O)[C@@H](C)O)C(=O)N[C@@](C)(CC(C)C)C(=O)N[C@@H](CC(C)C)C(=O)N[C@@H](CCC(=O)O)C(=O)N[C@@H](CCCCNC(=O)COCCOCCNC(=O)COCCOCCNC(=O)CC[C@H](NC(=O)CCCCCCCCCCCCCCCCCCC(=O)O)C(=O)O)C(=O)N[C@@H](CCCCN)C(=O)N[C@@H](C)C(=O)N[C@@H](C)C(=O)NC(C)(CC)C(=O)N[C@@H](CCC(=O)O)C(=O)N[C@@H](Cc1ccccc1)C(=O)N[C@H](C(=O)N[C@@H](CCC(=O)O)C(=O)N[C@@H](Cc1c[nH]c2ccccc12)C(=O)N[C@@H](CC(C)C)C(=O)N[C@@H](CC(C)C)C(=O)N[C@@H](C)C(=O)NCC(=O)NCC(=O)N1CCC[C@H]1C(=O)N[C@@H](CO)C(=O)N[C@@H](CO)C(=O)NCC(=O)N[C@@H](C)C(=O)N1CCC[C@H]1C(=O)N1CCC[C@H]1C(=O)N1CCC[C@H]1C(=O)N[C@@H](CO)C(N)=O)C(C)C (stereo partly drawn) [Compound 0137] (H-H[Aib]HGTFTSDYSI[αMeL]LEK([AEEA-AEEA-γGlu-C20 diacid])KAA[ξIva]EFVEWLLAGGPSSGAPPPS-NH2) | 0.163 mL/min/kg | 8.8 h | 0.013 nM | 0.001 nM
CC(C)C[C@H](NC(=O)[C@H](CC(C)C)NC(=O)[C@H](Cc1c[nH]c2ccccc12)NC(=O)[C@H](CCC(=O)O)NC(=O)[C@@H](NC(=O)[C@H](Cc1ccccc1)NC(=O)[C@H](CCC(=O)O)NC(=O)[C@H](CCC(N)=O)NC(=O)[C@H](C)NC(=O)C(C)(C)NC(=O)[C@H](CCCCN)NC(=O)[C@H](CCCCNC(=O)COCCOCCNC(=O)COCCOCCNC(=O)CC[C@H](NC(=O)CCCCCCCCCCCCCCCCCCC(=O)O)C(=O)O)NC(=O)[C@H](CCC(=O)O)NC(=O)[C@H](CC(C)C)NC(=O)[C@H](Cc1ccc(O)cc1)NC(=O)[C@H](CCCCN)NC(=O)[C@H](CO)NC(=O)[C@H](Cc1ccc(O)cc1)NC(=O)[C@H](CC(=O)O)NC(=O)[C@H](CO)NC(=O)[C@@H](NC(=O)[C@H](Cc1ccccc1)NC(=O)[C@@H](NC(=O)CNC(=O)[C@H](Cc1c[nH]cn1)NC(=O)C(C)(C)NC(=O)[C@@H](N)Cc1c[nH]cn1)[C@@H](C)O)[C@@H](C)O)C(C)C)C(=O)N[C@@H](C)C(=O)NCC(=O)NCC(=O)N1CCC[C@H]1C(=O)N[C@@H](CO)C(=O)N[C@@H](CO)C(=O)NCC(=O)N[C@@H](C)C(=O)N1CCC[C@H]1C(=O)N1CCC[C@H]1C(=O)N1CCC[C@H]1C(=O)N[C@@H](CO)C(N)=O [Compound 0110] (H-H[Aib]HGTFTSDYSKYLEK([AEEA-AEEA-γGlu-C20 diacid])K[Aib]AQEFVEWLLAGGPSSGAPPPS-NH2) | – | – | 0.016 nM | –

Source: patent EP4745153A1, “GLP-1, GIP AND GCG RECEPTOR […] USE THEREOF” (Jiangsu Hengrui Pharmaceuticals Co., Ltd., priority 2023, dated 2025)
